Several values for one entry are separate records, joined by “and”; a condition that tells them apart may be missing. Equal values may be shown once.
How the values were obtained:
Assay type in all cases: in vivo
[1] = tested on: Sorghum; assay: Greenhouse safening test: % plant inhibition of sorghum by herbicide with and without safener; conditions: approx. 21 days; for % Plant Inhibition, Sorghum (herbicide plus safener): H-1 (alachlor) 2.2 kg/ha plus safener 9.0 kg/ha, left-hand figure
Experimental: (§1) Seed plantings and the sequential application of the herbicide and safening agents are accomplished in the following manner:
(§2) A fumigated silt loam to top soil is placed in a container and compacted to a depth of approximately 1.27 cm. from the top of said container. A predetermined number of seeds of each of the crop species to be tested are placed on top of the soil. A quantity of soil sufficient to substantially fill the container is measured and placed in a second container. A measured quantity of the herbicide dispersed or dissolved in a suitable carrier is applied to the soil in the second container. A measured quantity of the safening agent dispersed or dissolved in a suitable carrier is thereafter sprayed on the soil already treated with the […]. The soil containing the safening agent and/or herbicide is thoroughly mixed. This mixing is sometimes referred to as incorporation of the herbicide and safening agent into the soil. The mixing or incorporation provides a substantially uniform distribution of the safening agent and herbicide throughout the soil. The seeds are covered with the soil containing the safening agent and/or herbicide or with untreated soil, and the pots are leveled. The pots are then placed on a sand bench in a greenhouse and watered from below as needed. When the seeds are treated with safener, the application of the safener to the soil is omitted. The coated seeds are placed on top of the soil in the pot and the balance of the treatment procedure is the same. The plants are observed at the end of approximately 21 days and the results in terms of percent inhibition of growth are recorded.
(§3) For each test series, a pot is also prepared containing no herbicide and no safening agent as a control. For each treatment, the herbicidal activity is observed on pots treated with the same quantity of herbicide alone. The results are observed and recorded as percent inhibition of each plant species tested. The tank mixes of know herbicides, safeners or combinations thereof were prepared by dissolving the appropriate amount of active ingredient in acetone. In Table 2 the results of testing the compounds of the present invention have been set forth. The rates of herbicide application are given in kilograms per hectare. In each treatment the amount of safener employed was 9.0 kilograms per hectare. In the % Plant Inhibition section of Table 2 under the listed crop columns the data are the inhibitions for herbicide plus safener on the left side and for the herbicide alone on the right side. The known herbicides are identified as follows. Throughout the examples, the herbicides are individually identified by reference numbers H-1 and H-2.

[2] = tested on: Rice; assay: Greenhouse safening test: % plant inhibition of rice by herbicide with and without safener; conditions: approx. 21 days; for % Plant Inhibition, Rice (herbicide plus safener): left-hand figure; for % Plant Inhibition, Rice (herbicide alone): right-hand figure
Experimental: as §1, §2, §3

[3] = tested on: Wheat; assay: Greenhouse safening test: % plant inhibition of wheat by herbicide with and without safener; conditions: approx. 21 days; for % Plant Inhibition, Wheat (herbicide plus safener): H-1 (alachlor) 2.2 kg/ha plus safener 9.0 kg/ha, left-hand figure
Experimental: as §1, §2, §3

[4] = H-2 (butachlor) 4.5 kg/ha plus safener 9.0 kg/ha
[5] = H-1 (alachlor) 2.2 kg/ha alone, right-hand figure

Compound	% Plant Inhibition, Sorghum (herbicide plus safener) [1]	% Plant Inhibition, Rice (herbicide plus safener) [2, 4]	% Plant Inhibition, Wheat (herbicide plus safener) [3]	also measured
Cn1c(SC2(C#N)CC2)nnc1C(F)(F)F [Compound 1, 1([4-methyl-5-(trifluoromethyl)4H.1,2,4-triazol-3 yl]thio)-1-cyclopropanecarbonitrile]	100%	95%	75%	–
N#CC1(Sc2nc(-c3ccccc3)cs2)CC1 [Compound 2, 1-[(4-phenyl-2-thiazolyl)thio]-1-cyclopropanecarbonitrile]	45%	90%	–	% Plant Inhibition, Rice (herbicide plus safener) ([2]; H-1 (alachlor) 2.2 kg/ha plus safener 9.0 kg/ha): 95%
Cc1ccnc(SC2(C#N)CC2)n1 [Compound 3, 1-[(4-methyl-2-pyrimidinyl)thio]-1-cyclopropanecarbonitrile]	95%	40%	90%	–
Cn1ccnc1SC1(C#N)CC1 [Compound 4, 1-[(1-methyl-1H--imidazol-2-yl)thio]-1-cyclopropanecarbonitrile]	20%	95%	100%	–
CCc1cccc(CC)c1N(COC)C(=O)CCl [Compound H-1, 2-chloro-2',6'-diethyl-N-(methoxymethyl) acetanilide, reference compound]	–	–	–	% Plant Inhibition, Sorghum (herbicide alone) [1, 5]: 90% and 80% and 85%; % Plant Inhibition, Rice (herbicide alone) ([2]; H-1 (alachlor) 2.2 kg/ha alone): 90%; % Plant Inhibition, Wheat (herbicide alone) [3, 5]: 90% and 75% and 80%
CCCCOCN(C(=O)CCl)c1c(CC)cccc1CC [Compound H-2, 2-chloro-2',6'-diethyl-N-(butoxymethyl) acetanilide, reference compound]	–	–	–	% Plant Inhibition, Rice (herbicide alone) ([2]; H-2 (butachlor) 4.5 kg/ha alone): 90% and 75% and 60%

From US4584376A, “1-heterocyclicthio-1-cyclopropanecarbonitriles as crop protectants” (Monsanto Company, priority 1982, dated 1986)
